In patent US6150351A, “Cephem compounds and pharmaceutical use thereof” (Fujisawa Pharmaceutical Co., Ltd., priority 1996, dated 2000):
Each block holds one compound with its values, some of them ahead of it.

What was measured:
in vivo = assay: in vivo; set-up: species or system male rats; conditions: rat, po
Description: The test compound suspended in 0.5% methylcellulose was orally administered to male rats at a dose of 100 or 32 mg/kg/day for 2 weeks.

H. pylori FP 1757 [1] = assay: In vitro anti-microbial activity against Helicobacter pylori (two-fold agar plate dilution method); format: cell-based; conditions: FP1757, 72 h, test strain H. pylori FP 1757, Brucella agar with 7% horse blood, 37° C., 3 days, 10% CO2
H. pylori FP 1757 [2] = assay: Therapeutic effects in mouse model (H. pylori infection, eradication); format: in vivo, male ICR mice; conditions: 0.32 mg/kg/time, oral, twice per day for 4 days; mice sacrificed 2 weeks after final administration
Description: 1.5 ml of approx. 10^8 cfu/ml of H. pylori FP 1757 was orally infected into 4 weeks old male ICR mice (Nippon SLC, Hamamatsu, Japan) which had been fasted overnight. […] The test compound was suspended in 0.5% methylcellulose and administered to the mice. The mice were sacrificed at 2 weeks after the final administration and the gastric mucosa was scraped and homogenized in 1 ml of 0.1 M phosphate buffered saline. 0.1 ml aliquots were inoculated onto Brucella agar plate containing 3% horse serum, 2% starch and antibiotics. All plates were incubated at 37° C. under 10% CO2 for 4 or 5 days. Colonies grown on the plate were counted, and the therapeutic effect was evaluated.

Structure (SMILES): NC(=O)Cc1csc(SC2=C(C(=O)O)N3C(=O)[C@@H](NC(=O)Cc4ccccc4)[C@H]3SC2)n1 [Example 14, 7β-(2-Phenylacetamido)-3-(4-carbamoylmethylthiazol-2-yl)thio-3-cephem-4-carboxylic acid]
NOAEL at 336 h (in vivo): 100 mg/kg/day

MIC (H. pylori FP 1757 [1]): < 0.02 µg/mL
Structure (SMILES): NCc1nnc(SC2=C(C(=O)O)N3C(=O)[C@@H](NC(=O)Cc4ccccc4)[C@H]3SC2)s1.O=C(O)C(F)(F)F [Example 24, 7β-(2-phenylacetamido)-3-(5-aminomethyl-1,3,4-thiadiazol-2-yl)thio-3-cephem-4-carboxylic acid trifluoroacetic acid salt]

Structure (SMILES): O=C(O)Cc1csc(SC2=C(C(=O)O)N3C(=O)[C@@H](NC(=O)Cc4cccs4)[C@H]3SC2)n1 [Example 72, 7β-[2-(2-Thienyl)acetamido]-3-(4-carboxymethylthiazol-2-yl)thio-3-cephem-4-carboxylic acid]
eradication (H. pylori FP 1757 [2]): > 80%
